Series [1] has as its system patients having prednisone-induced osteoporosis complicated by arthralgia. The note with it: daily administration; cited from earlier work.
Series [2] concerns nausea and vomiting associated with administration of the test drug. Put plainly: Working Example 2: prescriptions for nausea and vomiting associated with administration of the test drug. The note with it: given before test drug.
From the text: The administration period and efficacy of various drugs to treat nausea and vomiting associated with administration of the test drug were studied.
The conditions of series [3]: PTH 20 μg/day; blood samples 4 to 6 hours after administration; cited from earlier work.

The values below come from US20120252729A1, “PTH-CONTAINING THERAPEUTIC/PROPHYLACTIC AGENT FOR OSTEOPOROSIS, CHARACTERIZED IN THAT PTH IS ADMINISTERED ONCE A WEEK IN A UNIT DOSE OF 100 TO 200 UNITS” (ASAHI KASEI PHARMA CORPORATION, priority 2009, published 2012).

With `CC[C@H](C)[C@H](NC(=O)[C@H](CCC(=O)O)NC(=O)[C@H](CO)NC(=O)[C@@H](NC(=O)[C@@H](N)CO)C(C)C)C(=O)N[C@@H](CCC(N)=O)C(=O)N[C@@H](CC(C)C)C(=O)N[C@@H](CCSC)C(=O)N[C@@H](Cc1cnc[nH]1)C(=O)N[C@@H](CC(N)=O)C(=O)N[C@@H](CC(C)C)C(=O)NCC(=O)N[C@@H](CCCCN)C(=O)N[C@@H](Cc1cnc[nH]1)C(=O)N[C@@H](CC(C)C)C(=O)N[C@@H](CC(N)=O)C(=O)N[C@@H](CO)C(=O)N[C@@H](CCSC)C(=O)N[C@@H](CCC(=O)O)C(=O)N[C@@H](CCCN=C(N)N)C(=O)N[C@H](C(=O)N[C@@H](CCC(=O)O)C(=O)N[C@@H](Cc1c[nH]c2ccccc12)C(=O)N[C@@H](CC(C)C)C(=O)N[C@@H](CCCN=C(N)N)C(=O)N[C@@H](CCCCN)C(=O)N[C@@H](CCCCN)C(=O)N[C@@H](CC(C)C)C(=O)N[C@@H](CCC(N)=O)C(=O)N[C@@H](CC(=O)O)C(=O)N[C@H](C(=O)N[C@@H](Cc1cnc[nH]1)C(=O)N[C@@H](CC(N)=O)C(=O)N[C@@H](Cc1ccccc1)C(=O)O)C(C)C)C(C)C` [Forteo, teriparatide (rDNA origin)], the “Bone strengthening effect compared with Fosamax” value in series [1] is listed as “stronger bone strengthening effect than Fosamax”. Take `O=c1[nH]c2ccccc2n1CCCN1CCC(n2c(=O)[nH]c3cc(Cl)ccc32)CC1` [Nauzelin, domperidone]: the Effective or ineffective result in series [2] (event: nausea) and in series [2] (event: vomiting) was “Effective” in each case. In the case of “PTH: PTH (parathyroid hormone) preparation given daily (20 μg/day) in cited osteoporosis trials”, in series [3], the Patients with hypercalcemia is recorded as 11% and the “Patients with persistent hypercalcemia” value is reported as 3%.
